3 molecules from patent US20240196885A1, “INSECT PEST BAIT COMPOSITION WITH ISO[…] METHOD FOR CONTROLLING INSECT PESTS” (SYNGENTA CROP PROTECTION AG, priority 2021, published 2024) can be followed below.

Common to all, as to assay type: in vivo
In data set [1] the test system is Reticulitermes santonensis. The data set is described as follows: Termite worker knockdown and mortality after exposure to filter paper bait. Here is the method: (§1) Bait preparation. isocyloseram was applied dissolved in acetone to the appropriate insect diet such that the desired a.i. loading was delivered in the diet after the acetone had evaporated. • House fly—granulated sugar • Termites—filter paper • Darkling beetle—oat flakes
(§2) In a suitable arena, 10 insects of each species were exposed to 1 g of the solid baits. Baits were presented in such a way as to minimise the contact exposure. Three replicates of each treatment and species were conducted.
(§3) Insect knockdown was assessed one and three hours after exposure, and mortality after 24 and 48 and 168 hours.

Data set [2] relates to Darkling beetle larvae. Description: Darkling beetle larval knockdown and mortality after exposure to oat flake bait. Here is the method:
as §1, §2, §3

For data set [3], the system named is Darkling beetle adults. Description: Darkling beetle adult knockdown and mortality after exposure to oat flake bait. The conditions noted are these: for Mean % knockdown or mortality: adults. As for the experimental part: as §1, §2, §3
The subject of data set [4] is Musca domestica. The data set is described as follows: Adult house fly knockdown and mortality after exposure to a sugar bait. Here is the method: as §1, §2, §3
Data set [5] relates to Atta bisphaerica (leaf cutter ant). The data set is described as follows: Field test for control of leaf cutter ant with pelleted citrus pulp bait. The conditions noted are these: for control efficiency after opening the nests in the excavation of the anthills: excavation at 155 DAA, modified Abbott formula; for ceased activity in leaf cutting by ants: ninety days after application. As for the experimental part:
Bait preparation. Blends of citrus pulp and refined soybean oil (95/5 w/w %) were sprayed with an aqueous isocycloseram suspension concentrate (SC) such as […]™ (Syngenta Agro S.A.), further blended and pelletized. Bait pellets or granules having an isocycloseram a.i. loading of 0.05, 0.1, 0.2 and 0.3%, respectively, were prepared.
The field test for the control of Atta bisphaerica (leaf cutter ant) was conducted with the pelleted isocycloseram citrus pulp bait. The experimental design was completely randomized, with fourteen treatments and 10 replications, following the norms, considering an anthill as repetition. The treatments used were: isocyloseram −0.05% at doses of 6, 10 and 12 g/m^2, isocyloseram […] 0.1% at doses of 6, 10 and 12 g/m^2, isocyloseram −0.2% at doses of 6, 10 and 12 g/m^2, isocyloseram −0.3% at doses of 6, 10 and 12 g/m^2, A commercial standard Mirex-S (sulfluramid) at a dose of 10 g/m^2 and a control (Placebo); commercial product dosages per m^2 of loose earth. The evaluations with 1, 2, 3 and 7 DAA (days after application) included the loading rate parameters (%) (i.e. the % bait applied that is carried into the ant nest), return rate (%) (i.e. the % bait rejected by the colony) and intoxicated ants. As 1, 2, 3, 7, 15, 28, 60, 90, 118 and 155 DAA, the ground removal parameters (%) and leaf cutting and anthill excavation at 155 DAA.
The application of the products was carried out manually, with the aid of a dosing cup, near the scouts and trails of the anthills. The results obtained were submitted to variance analysis, compared by the Scott-Knott test (p≤0.05) and corrected by the modified Abbott formula for control calculation.

Data set [6] concerns German cockroaches, Blattella germanica. Description: Cockroach peanut butter bait: donor mortality and secondary kill of recipients. The following applies: for Recipient % mortality: recipients exposed to donors of 1% bait, not to the bait. Here is the method: Isocycloseram was incorporated into the peanut-butter base by mixing 0.5 ml of a 10000 ppm (1%) solution of the compound in acetone into 0.5 g of peanut butter. The mixture was left in a fume cupboard for 24 hours to allow the acetone to evaporate, leaving […] of compound in 0.5 g of peanut butter, equivalent to 10000 ppm.
Five adult male and five non-gravid adult female German cockroaches, Blattella germanica, were marked with a dot of white paint, to identify them, and placed into a plastic arena approximately 20 cm in diameter. Also placed in each arena was a simple harbourage constructed from concertinaed card and a water source. After the cockroaches had acclimatised for 24 hours a 15 ml glass vial containing 0.5 g of the treated peanut butter bait was added.
After 48 hours the glass vial containing the bait was removed, and an assessment of the cockroach mortality was made. Five adult male and five non-gravid adult female German cockroaches, Blattella germanica, were added to the arena, leaving any dead or alive cockroaches with the white paint mark in the arena.
Mortality of both the marked and unmarked cockroaches was made after 24 and 96 hours.

Data set [7] deals with Agrotis ypsilon (Greasy cutworm). Description: Protection of corn seedlings from Agrotis ypsilon larvae in field arenas (bait, foliar spray, seed treatment). As for the experimental part:
Trial layout: Arenas of 4 square metres were created in a field with 20 cm high plastic walls to prevent escape of larvae and influx of predators but left to the open air. 3 replicates per trearment were set up. Corn (variety Hightech 2031, conventional non-Bt) was planted at the rate of 30 seeds per arena.
Application method 1: For seed treatment, the seeds were treated with aqueous 40% isocycloseram formulation, such as […]™ (Syngenta Agro S.A.), one day before planting using a standard seed treatment water slurry volume of 50 ml/kg of seed. Four rates of isocycloseram seed treatment were tested 0.3, 0.6, 1.3 and 2.5 mg/seed.
Application method 2: For bait application, dried cobs of maize corn were ground after removal of the seeds to form a coarse granular “corn grit” bait carrier. The corn grit was spread out on a plastic sheet and sprayed with a 40% SC aqueous formulation of isocycloseram mixed with water at the rates of 15, 30 and 60 grams of isocycloseram per 70 kg of corn grit. The baits were then mixed homogeneously and spread by hand in the evening at a rate of 70 kg/ha (7 gr./sqm, or 28 gr./plot) evenly over the soil surface. This was done 4 days after planting, just before emergence of the corn to attract and kill the cutworms at night.
Application method 3: For foliar sprays, a standard hand-held spray-boom with flat-fan nozzles at 600 I/ha was used. The spray was made 1 day after release of the Greasy cutworm larvae at the 2 leaf stage (BBCH 12) of the corn. Three rates were used 30, 60 and 90 grams isocyclseram per hectare
Two check lots were included—both untreated, one with infestation and one without infestation.
Artificial infestation: Laboratory-reared Agrotis ypsilon (Greasy cutworm) larvae at the L5 stage were released into the arenas at a rate of 30 larvae per arena (1 larva per plant) in the morning. This infestation was made Infest 30 L5 larvae into each arena in the morning (1 larva per plant) approx 3 days after seeding just as corn is germinating. Make the application 8-24 hours later.
Assessment: The number of damaged plants per plot was measured at 21 days after the last application (the foliar spray).

In data set [8] the test system is Darkling beetle larvae. Description: Darkling beetle larval knockdown and mortality after exposure to oat flake bait. The conditions noted are these: larval stage, 100 ppm, after seven days.
Data set [9] has as its system Agrotis ypsilon (Greasy cutworm). The data set is described as follows: Protection of corn seedlings from Agrotis ypsilon larvae in field arenas (bait, foliar spray, seed treatment). This is another data set of the same source.
The mark [10] stands for this setting: 0.1% in oat flake bait, 3 hours.
[11] abbreviates: 0.1% in oat flake bait, 24 hours.
Setting [12] is: 0.1% in oat flake bait, 48 hours.
Setting [13] is: 0.1% in oat flake bait, 168 hours.
Setting [14] is: 1% in oat flake bait, 168 hours.

For the molecule `CCN1OCC(NC(=O)c2ccc(C3=NOC(c4cc(Cl)c(F)c(Cl)c4)(C(F)(F)F)C3)cc2C)C1=O` (centres unmarked) [isocyloseram, Isocycloseram], the “Mean % knockdown or mortality” value came out at 0% in [1] (0.10% in filter paper bait, 1 hour); 0% in data set [1] (0.10% in filter paper bait, 3 hours); 100% in data set [1] (0.10% in filter paper bait, 24 hours); 100% in data set [1] (0.10% in filter paper bait, 48 hours); 0% in data set [1] (1% in filter paper bait, 1 hour); 7% in [1] (1% in filter paper bait, 3 hours). Further, the “Mean % knockdown or mortality” value in data set [1] (1% in filter paper bait, 24 hours) is on record as 100%; in data set [1] (1% in filter paper bait, 48 hours), 100%; in [2] (0.1% in oat flake bait, 1 hour) it was 0%; in data set [2] (setting [10]), 0%; in [2] (setting [11]) it was 0%; in [2] (setting [12]) it was 3%. Besides, the “Mean % knockdown or mortality” value in [2] (setting [13]) is on record as 23%; in data set [2] (1% in oat flake bait, 1 hour), 0%; in data set [2] (1% in oat flake bait, 3 hours), 23%; in data set [2] (1% in oat flake bait, 24 hours), 80%; in [2] (1% in oat flake bait, 48 hours), 83%; in data set [2] (setting [14]), 100%. Besides, the “Mean % knockdown or mortality” value in data set [3] (0.1% in oat flake bait, 1 hour) is given as 0%; in data set [3] (setting [10]) it was 0%; in data set [3] (setting [11]), 0%; in [3] (setting [12]) it was 3%; in data set [3] (setting [13]), 7%; in data set [3] (1% in oat flake bait, 1 hour), 0%. In addition, the “Mean % knockdown or mortality” value in data set [3] (1% in oat flake bait, 3 hours) is 0%; in [3] (1% in oat flake bait, 24 hours), 93%; in data set [3] (1% in oat flake bait, 48 hours), 97%; in data set [3] (setting [14]), 100%; in [4] (0.10% in sugar bait, 1 hour), 0%; in data set [4] (0.10% in sugar bait, 3 hours), 57%. For the same molecule, the “Mean % knockdown or mortality” value in [4] (0.10% in sugar bait, 24 hours) is 100%; in data set [4] (1% in sugar bait, 1 hour), 0%; in [4] (1% in sugar bait, 3 hours), 97%; in data set [4] (1% in sugar bait, 24 hours), 100%. Moreover, the mortality in data set [3] (adult stage, 100 ppm, after seven days) worked out at 100%; in data set [8], 100%. For the same molecule, the “control efficiency after opening the nests in the excavation of the anthills” value in [5] (0.2% bait (10 and 12 g)) is on record as “higher than 84%”; in [5] (0.3% bait (6, 10 and 12 g)), “higher than 84%”. Also, the “response rate as a function of the time of intoxication” value is recorded as 87.5% in data set [5] (first three days after application of bait) and 100% in data set [5] (seven days after bait application). Besides, the “ceased activity in leaf cutting by ants” value in [5] (0.1% bait (12 g)) amounted to 100%; in data set [5] (0.2% bait (6, 10 and 12 g)), 100%; in data set [5] (0.3% bait (6, 10 and 12 g)) it was 100%. For the same molecule, the “average (ground) removal” value in data set [5] (twenty-eight days after treatment) was “less than 5%”. The molecule further showed a Donor % mortality in [6] (1% in peanut butter bait, 48 hours) of 100%. Further, the Recipient % mortality is 97% in data set [6] (24 hours post introduction) and 100% in data set [6] (96 hours post introduction). In addition, the “% reduction of corn damage 22 d after infestation” value (“% reduction of corn damage 22 d” for short) in data set [7] (Corn Grit Bait 0.42 gai/kg bait, equivalent 30 gai/ha) amounted to 94%; in [7] (Corn Grit Bait 0.63 gai/kg bait, equivalent 60 gai/ha), 94%; in data set [7] (Corn grit Bait 0.21 gai/kg bait, equivalent 15 gai/ha), 87%; in data set [7] (Foliar spray 30 gai/ha), 37%; in data set [7] (Foliar spray 60 gai/ha) it was 46%; in [7] (Foliar spray 90 gai/ha) it was 74%. For the same molecule, the “% reduction of corn damage 22 d” value in data set [7] (Seed treatment 0.3 mg ai/seed, equivalent 18 gai/ha) is listed as 0%; in data set [7] (Seed treatment 0.6 mg ai/seed, equivalent 36 gai/ha), 2%; in data set [7] (Seed treatment 1.3 mg ai/seed, equivalent 72 gai/ha) it was 6%; in [7] (Seed treatment 2.5 mg ai/seed, equivalent 144 gai/ha), 13%.

As for `CC1(C)[C@H](C(=O)O[C@H](C#N)c2cccc(Oc3ccccc3)c2)[C@@H]1/C=C(\Cl)C(F)(F)F` [lambdacyhalothrin, Lambdacyhalothrin], the “% reduction of corn damage 22 d” value in data set [9] (Foliar spray 22.4 gai/ha) amounted to 81%.

For the molecule Spinetoram, in data set [9] (Foliar spray 18 gai/ha), the “% reduction of corn damage 22 d” value came out at 28%.
